In patent publication US11510931B2, “Compositions and methods for treating ophthalmic conditions” (MEDICON PHARMACEUTICALS, INC., priority 2016, dated 2022):

Columns and labels:
[1] = tested on: PGE2; assay: PGE2 levels in tears and cornea of rabbits by ELISA; type: in vivo, rabbit
Experimental: The effects of PS, ketorolac and dicofenac (the latter two ophthalmic NSAIDs known to induce corneal melt) on the tear levels of PGE2 in rabbits with concanavalin A-induced dry eye were compared. Three eye drops of PS 1.5% or of commercially available ketorolac 0.5% were given at 0 time, and 1 h later to rabbits with concanavalin A-induced DED. Tears were obtained at 2 h and the levels of PGE2 were determined by ELISA. PGE2 in tears of naïve rabbits (not exposed to concanavalin A nor treated) was also measured. The PGE2 levels (mean±SEM) were: Naïve, 110.4±12.6 ng/ml; PS-treated, 115.4±15.8 ng/ml; Ketorolac-treated, 77.7±8.7 ng/ml. The difference in PS vs. ketorolac was significant, p<0.02; as was the difference in ketorolac vs naïve, p<0.03. Regarding this parameter, PS differs radically form ketorolac, which induces corneal melt.
Levels of PGE2 in the corneas of three groups of rabbits were determined by ELISA. Rabbits were treated with PS 1.6% or ketorolac 0.5% eye drops topically applied to their eyes or were not treated (naïve group). Results in pg/mg protein (mean±SEM). Naïve=787.3±96.3; PS=880.6±110.3; Ketrolorac=247.2±187.4 (p<0.01 vs PS).
Rabbits with DED induced by concanavalin A as above were treated for 6 days with vehicle, or PS 2.3% or ketorolac 0.5% or diclofenac 0.1%. Compared to the vehicle group, on day 6 the PGE2 levels in the cornea were 106% of the vehicle value in the PS group (not a statistically significant difference), 1.3% in the ketorolac group (p<0.0001 vs. vehicle, and 2.3% in the diclofenac group (p<0.0001 vs. vehicle).
It was determined that the levels of PGE2 in rabbit tears in three groups of rabbits, naïve and those with Con A-induced DED that were treated for 1 week either with PS or vehicle.
In an acute experiment, administered once topically to the eyes of four groups of rabbits with Con A-induced DED was one of the following: vehicle, PS, ketorolac or diclofenac; the latter two are NSAIDs used for the treatment of ocular inflammation and pain. It was determined that the levels of PGE2 in the cornea of these rabbits obtained 1 h later as well as in the corneas of naïve rabbits.

[2] = tested on: MMP-9; assay: MMP-9 levels in lacrimal gland and aqueous humor of rabbits with DED (ELISA); type: in vivo, rabbit
Experimental: In an in vitro assay with purified MMP-1 (collagenase I) as […] it was shown that PS inhibited collagenase activity with an IC50 of <100 nM. In cultured human conjunctiva cells, PS suppressed MMP-1 by 75%-86%. In the lacrimal glands of rabbits with DED treated with PS eye drops, PS suppressed MMP-9 levels by 27% compared to vehicle treated rabbits (2.20±0.24 vs. 1.66±0.20 ng/mg protein; p<0.05; mean±SEM).

[3] = tested on: cornea of New Zealand white rabbits; assay: Corneal touch threshold (CTT), Cochet-Bonnet aesthesiometer; type: in vivo, rabbit
Experimental: The analgesic effect of PS was determined by measuring the corneal touch threshold (CTT) using the Luneau Cochet-Bonnet Aeshesiometer (Western Ophthalmics, Lynwood, Wash.), an adjustable nylon monofilament with a defined diameter, which is applied in different lengths to the center of the cornea. This device is generally described in Lima L, Lange R R, Turner-Giannico A, Montiani-Ferreira F. Evaluation of standardized endodontic paper point tear test in New Zealand white rabbits and comparison between corneal sensitivity followed tear tests. Vet Ophthalmol. 2015; 18 Suppl 1:119-24.
A stimulus produced by the filament that reaches the CTT induces a corneal reflex, consisting of prompt eyelid closure. The CTT is quantified as centimeter length of the filament necessary to cause the blink reflex.
The CTT is determined before (baseline) and at various time points after the application of the test compound (PS). PS was formulated either in β-cyclodextrin (42 or 8 mg/ml) or in a nanocarrier (19 mg/ml). The test drug was formulated in a nanocarrier by the emulsion and evaporation method (Vauthier C, Bouchemal K. Methods for the Preparation and Manufacture of Polymeric Nanoparticles. Pharmaceutical Research; 2009; 26:1025-1058). The formulated stable drug suspension consisted of polylactic acid and polyethylene glycol (PLLA(10k)-PEG(2k)); sodium cholate; and PS. The vehicle control was either β-cyclodextrin or the nanocarrier without PS. Commercially available lidocaine 1% was used as a positive control.
To each eye of adult New Zealand white rabbits was applied […] drops of PS or vehicle or lidocaine, with 5 minutes between each drop. The time of the last drop was taken as the 0 time.
The analgesic effect of PS was further examined on the surface of the eye by determining the corneal touch threshold (CTT) using the Luneau Cochet-Bonnet Aesthesiometer (Western Ophthalmics, Lynwood, Wash.) an adjustable nylon monofilament with a defined diameter, which is applied in different lengths to the center of the cornea.

[4] = Biodistribution of PS in porcine eyes (ex vivo); type: in vitro ADME, pig; conditions: porcine eye ex vivo, 2% PS nanoparticle solution
From the text: Biodistribution of PS in porcine eyes (ex vivo): Explanted pig eyes were exposed to PS nanoparticle solution (PS concentration was 2%) and treated as were the human eyes.

[5] = exposure/incubation 1/15 min/min
[6] = exposure/incubation 1/60 min/min
[7] = exposure/incubation 10/15 min/min
[8] = exposure/incubation 10/60 min/min

In the case of CCOP(=O)(OCC)OCCCCOC(=O)CC1=C(C)/C(=C/c2ccc([S+](C)[O-])cc2)c2ccc(F)cc21 (stereo not drawn) [PS, phosphosulindac], the “PGE2 levels in tears” value ([1]; Con A DED rabbits treated for 1 week, FIG. 9A) is reported as “slightly lower than (but not significantly different from) those of naïve rabbits”, the “PGE2 levels in the cornea” value ([1]; Con A DED rabbits, administered once topically, 1 h later, FIG. 9B) is reported as “no different than those of vehicle-treated and naïve rabbits” and the “PGE2 levels in the cornea, % of the vehicle value” ([1]; Con A DED rabbits, day 6, PS 2.3%, ketorolac 0.5%, diclofenac 0.1%) is reported as 106%. For the same compound, the “PGE2 levels in tears” value ([1]; Con A DED rabbits, three eye drops at 0 and 1 h, tears at 2 h, PS 1.5%, ketorolac 0.5%, mean±SEM) was 115.4 ± 15.8 ng/mL, the “PGE2 levels in the corneas” value ([1]; rabbits, PS 1.6% or ketorolac 0.5% eye drops, mean±SEM) was 880.6±110.3 pg/mg protein and the “MMP-9 levels suppression compared to vehicle” value ([2]; lacrimal glands of rabbits with DED, PS eye drops) was 27%. The MMP-9 levels ([2]; lacrimal glands of rabbits with DED, PS eye drops, mean±SEM) was 1.66±0.20 ng/mg protein, the “MMP-9 levels in the ILG and the aqueous humor” value ([2]; rabbits with DED treated with PS for 1 week) was “back to normal” and the “Corneal touch threshold (CTT)” value ([3]; PS 8 mg/ml in β-cyclodextrin, 1 min) was 5.3 ± 0.7 centimeter. For the same compound, the “Corneal touch threshold (CTT)” value ([3]; PS 8 mg/ml in β-cyclodextrin, 5 min) was 5.4 ± 0.8 centimeter, the “Corneal touch threshold (CTT)” value ([3]; PS 8 mg/ml in β-cyclodextrin, 10 min) was 5.6 ± 0.5 centimeter and the “Corneal touch threshold (CTT)” value ([3]; PS 8 mg/ml in β-cyclodextrin, 20 min) was 5.6 ± 0.5 centimeter. For the same compound, the “Corneal touch threshold (CTT)” value ([3]; PS 8 mg/ml in β-cyclodextrin, 30 min) was 5.9 ± 0.3 centimeter, the “Corneal touch threshold (CTT)” value ([3]; PS 8 mg/ml in β-cyclodextrin, 45 min) was 5.9 ± 0.3 centimeter and the “Corneal touch threshold (CTT)” value ([3]; PS 8 mg/ml in β-cyclodextrin, 60 min) was 5.9 ± 0.3 centimeter. For the same compound, the “Corneal touch threshold (CTT)” value ([3]; PS 8 mg/ml in β-cyclodextrin, baseline) was 5.9 ± 0.3 centimeter, the “Corneal touch threshold (CTT)” value ([3]; PS 19 mg/ml in nanocarrier, 1 min) was 5.4 ± 0.6 centimeter and the “Corneal touch threshold (CTT)” value ([3]; PS 19 mg/ml in nanocarrier, 5 min) was 5.1 ± 0.8 centimeter. For the same compound, the “Corneal touch threshold (CTT)” value ([3]; PS 19 mg/ml in nanocarrier, 10 min) was 5.3 ± 0.8 centimeter, the “Corneal touch threshold (CTT)” value ([3]; PS 19 mg/ml in nanocarrier, 20 min) was 5.5 ± 0.7 centimeter and the “Corneal touch threshold (CTT)” value ([3]; PS 19 mg/ml in nanocarrier, 30 min) was 5.9 ± 0.2 centimeter. For the same compound, the “Corneal touch threshold (CTT)” value ([3]; PS 19 mg/ml in nanocarrier, 45 min) was 5.9 ± 0.4 centimeter, the “Corneal touch threshold (CTT)” value ([3]; PS 19 mg/ml in nanocarrier, 60 min) was 5.9 ± 0.2 centimeter and the “Corneal touch threshold (CTT)” value ([3]; PS 19 mg/ml in nanocarrier, baseline) was 5.9 ± 0.3 centimeter. The “Corneal touch threshold (CTT)” value ([3]; PS 42 mg/ml in β-cyclodextrin, 1 min) was 2.7 ± 1.0 centimeter, the “Corneal touch threshold (CTT)” value ([3]; PS 42 mg/ml in β-cyclodextrin, 5 min) was 3.1 ± 1.2 centimeter and the “Corneal touch threshold (CTT)” value ([3]; PS 42 mg/ml in β-cyclodextrin, 10 min) was 3.7 ± 1.3 centimeter. For the same compound, the “Corneal touch threshold (CTT)” value ([3]; PS 42 mg/ml in β-cyclodextrin, 20 min) was 4.1 ± 1.4 centimeter, the “Corneal touch threshold (CTT)” value ([3]; PS 42 mg/ml in β-cyclodextrin, 30 min) was 5.1 ± 1.0 centimeter and the “Corneal touch threshold (CTT)” value ([3]; PS 42 mg/ml in β-cyclodextrin, 45 min) was 5.6 ± 0.7 centimeter. The “Corneal touch threshold (CTT)” value ([3]; PS 42 mg/ml in β-cyclodextrin, 60 min) was 5.9 ± 0.2 centimeter, the “Corneal touch threshold (CTT)” value ([3]; PS 42 mg/ml in β-cyclodextrin, baseline) was 5.9 ± 0.2 centimeter and the “analgesia (CTT)” value ([3]; single eye drop, naïve rabbits, FIG. 10) was “essentially instantaneous and significant analgesia”. The “PS in Cornea” value [4, 5] was 51.5 µM, the “PS in Lens” value [4, 5] was 9.5 µM and the “PS in Sclera” value [4, 5] was 86.6 µM. The “PS in Cornea” value [4, 6] was 99.8 µM, the “PS in Lens” value [4, 6] was 4.8 µM and the “PS in Sclera” value [4, 6] was 123.9 µM. The “PS in Cornea” value [4, 7] was 97.1 µM, the “PS in Lens” value [4, 7] was 1.9 µM and the “PS in Sclera” value [4, 7] was 89.9 µM. The “PS in Cornea” value [4, 8] was 170.6 µM, the “PS in Lens” value [4, 8] was 2.1 µM and the “PS in Sclera” value [4, 8] was 47.9 µM.
